Source: patent US8906925B2, “Pyrido[4,3-B]indoles containing rigid moieties” (Medivation Technologies, Inc., priority 2008, dated 2014)
Values joined by “and” are separate entries in the source; they are usually repeats but may differ in a detail not shown here. Equal values may be shown once.

Legend:
[1] = target: T1, human recombinant serotonin (5-Hydroxytryptamine) 5-HT2C receptor (Homo sapiens, UniProt P28335); experiment: Serotonin 5-HT2C radioligand binding ([3H]Mesulergine); conditions: read-out: Inhibition of ligand binding, Serotonin 5-HT2C (percent inhibition of specific binding); for inhibition at 0.1 µM: compound at 0.1 μM; for inhibition at 1 µM: compound at 1 μM
T1 construct: expressed in transfected cells; host or cells: Chinese hamster ovary (CHO-K1) cells
T1 sequence (P28335 33-458): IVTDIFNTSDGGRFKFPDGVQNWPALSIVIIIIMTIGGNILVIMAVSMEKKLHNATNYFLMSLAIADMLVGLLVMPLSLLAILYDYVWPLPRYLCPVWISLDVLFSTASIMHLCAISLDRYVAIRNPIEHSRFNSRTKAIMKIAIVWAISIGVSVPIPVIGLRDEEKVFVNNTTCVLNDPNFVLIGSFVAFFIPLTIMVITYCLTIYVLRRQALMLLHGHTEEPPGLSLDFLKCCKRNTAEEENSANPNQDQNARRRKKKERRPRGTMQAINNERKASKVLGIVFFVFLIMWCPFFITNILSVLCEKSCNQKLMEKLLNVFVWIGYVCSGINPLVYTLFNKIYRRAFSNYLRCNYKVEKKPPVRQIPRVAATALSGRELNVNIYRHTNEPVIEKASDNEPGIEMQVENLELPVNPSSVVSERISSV
How it was run: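 Compounds tested at 1 μM or lower (1% DMSO vehicle) for displacement of 1 nM [3H]Mesulergine over 60 min at 25° C. Specific binding determined by filtration counting, with 1 μM Mianserin defining non-specific binding; values are percent inhibition.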

[2] = target: human dopamine D2L receptor (Homo sapiens, UniProt P14416); experiment: Dopamine D2L radioligand binding ([3H]Spiperone); conditions: percent inhibition of specific binding, compound at 1 μM; for inhibition at 1 µM: read-out: Inhibition of ligand binding, Dopamine D2L; for Inhibition of ligand binding, Dopamine D2L: 1 µM
Text: Non-specific binding was estimated in the presence of […] Haloperidol. Receptor proteins were filtered and washed, the filters were then counted to determine [^3H]Spiperone specifically bound. […] Biochemical assay results are presented as the percent inhibition of specific binding in Table 9.

[3] = target: T2, human recombinant serotonin (5-Hydroxytryptamine) 5-HT6 receptor (Homo sapiens, UniProt P50406); experiment: Serotonin 5-HT6 radioligand binding ([3H]LSD); conditions: read-out: Inhibition of ligand binding, Serotonin 5-HT6 (percent inhibition of specific binding); for inhibition at 0.1 µM: compound at 0.1 μM; for inhibition at 1 µM: compound at 1 μM
T2 construct: expressed in transfected cells; host or cells: human HeLa cells
Procedure: Compounds of the invention were incubated with 1.5 nM [3H]Lysergic acid diethylamide (LSD) for 120 min. at 37° C. […] Receptor proteins were filtered and washed, the filters were then counted to determine [3H]LSD specifically bound. Compounds were screened at 1 μM or lower, using 1% DMSO as vehicle. Biochemical assay results are presented as the percent inhibition of specific binding in Table 10.

[4] = target: T3, human recombinant adrenergic α1D receptor (Homo sapiens, UniProt P25100); experiment: Adrenergic α1D radioligand binding ([3H]Prozosin); conditions: percent inhibition of specific binding, compound at 1 μM; for inhibition at 1 µM: read-out: Inhibition of ligand binding, Adrenergic α1D
T3 construct: expressed in transfected cells; host or cells: human embryonic kidney (HEK-293) cells
T3 sequence (P25100 1-572): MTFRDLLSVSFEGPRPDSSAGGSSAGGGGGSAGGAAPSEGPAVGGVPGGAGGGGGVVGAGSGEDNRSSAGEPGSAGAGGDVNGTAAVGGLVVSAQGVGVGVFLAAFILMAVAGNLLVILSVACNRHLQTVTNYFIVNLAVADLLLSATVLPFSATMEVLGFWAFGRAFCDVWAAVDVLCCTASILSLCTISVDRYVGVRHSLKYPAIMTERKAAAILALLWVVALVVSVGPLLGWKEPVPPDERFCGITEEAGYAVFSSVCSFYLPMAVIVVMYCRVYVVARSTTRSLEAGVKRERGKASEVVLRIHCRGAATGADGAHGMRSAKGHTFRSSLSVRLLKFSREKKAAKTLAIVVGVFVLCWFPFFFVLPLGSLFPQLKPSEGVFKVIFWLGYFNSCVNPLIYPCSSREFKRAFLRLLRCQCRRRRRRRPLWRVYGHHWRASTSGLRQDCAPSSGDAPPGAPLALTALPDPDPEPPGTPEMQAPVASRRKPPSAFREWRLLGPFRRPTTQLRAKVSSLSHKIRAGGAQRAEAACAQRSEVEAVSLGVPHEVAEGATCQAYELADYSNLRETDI
Procedure: Compounds of invention were incubated with 0.6 nM [^3H]Prozosin for 60 min. at 25° C. Non-specific binding was estimated in the presence of 10 μM phentolamine. Receptor proteins were filtered and washed, the filters were then counted to determine [^3H]Prozosin specifically bound. Compounds were screened at 1 μM or lower, using 1% DMSO as vehicle. Biochemical assay results are presented as the percent inhibition of specific binding in Table 9.

[5] = target: human recombinant serotonin (5-Hydroxytryptamine) 5-HT7 receptor (Homo sapiens, UniProt P34969); experiment: Serotonin 5-HT7 radioligand binding ([3H]LSD); conditions: for inhibition at 1 µM / inhibition at 0.1 µM: read-out: Inhibition of ligand binding, Serotonin 5-HT7 (percent inhibition of specific binding)
Text: Receptor proteins were filtered and washed, the filters were then counted to determine [^3H]LSD specifically bound.

Chain of human recombinant serotonin (5-Hydroxytryptamine) 5-HT7 receptor (P34969 whole entry): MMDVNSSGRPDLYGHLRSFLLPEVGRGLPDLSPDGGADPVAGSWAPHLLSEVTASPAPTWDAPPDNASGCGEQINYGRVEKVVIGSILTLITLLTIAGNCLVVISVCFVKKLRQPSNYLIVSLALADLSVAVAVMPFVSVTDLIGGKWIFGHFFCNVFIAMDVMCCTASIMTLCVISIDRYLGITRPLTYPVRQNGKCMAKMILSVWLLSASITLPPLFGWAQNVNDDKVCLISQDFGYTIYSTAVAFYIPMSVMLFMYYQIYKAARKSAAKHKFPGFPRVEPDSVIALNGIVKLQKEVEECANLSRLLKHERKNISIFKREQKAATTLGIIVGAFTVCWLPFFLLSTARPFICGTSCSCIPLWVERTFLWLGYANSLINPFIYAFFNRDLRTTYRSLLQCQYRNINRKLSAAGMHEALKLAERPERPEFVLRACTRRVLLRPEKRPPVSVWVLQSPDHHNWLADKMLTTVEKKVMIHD
T2 sequence (P50406 whole entry): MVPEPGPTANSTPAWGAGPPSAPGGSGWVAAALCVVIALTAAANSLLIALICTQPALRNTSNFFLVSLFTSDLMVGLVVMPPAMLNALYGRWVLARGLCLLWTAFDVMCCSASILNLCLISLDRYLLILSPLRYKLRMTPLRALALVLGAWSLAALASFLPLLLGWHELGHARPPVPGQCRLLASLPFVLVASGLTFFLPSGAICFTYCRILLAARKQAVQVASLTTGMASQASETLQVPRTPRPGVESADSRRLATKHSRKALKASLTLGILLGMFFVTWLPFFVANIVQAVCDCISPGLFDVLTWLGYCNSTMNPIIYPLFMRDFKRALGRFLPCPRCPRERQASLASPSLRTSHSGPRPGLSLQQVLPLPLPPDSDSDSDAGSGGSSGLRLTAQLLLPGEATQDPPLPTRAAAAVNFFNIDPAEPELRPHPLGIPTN
Chain of human dopamine D2L receptor (P14416 whole entry): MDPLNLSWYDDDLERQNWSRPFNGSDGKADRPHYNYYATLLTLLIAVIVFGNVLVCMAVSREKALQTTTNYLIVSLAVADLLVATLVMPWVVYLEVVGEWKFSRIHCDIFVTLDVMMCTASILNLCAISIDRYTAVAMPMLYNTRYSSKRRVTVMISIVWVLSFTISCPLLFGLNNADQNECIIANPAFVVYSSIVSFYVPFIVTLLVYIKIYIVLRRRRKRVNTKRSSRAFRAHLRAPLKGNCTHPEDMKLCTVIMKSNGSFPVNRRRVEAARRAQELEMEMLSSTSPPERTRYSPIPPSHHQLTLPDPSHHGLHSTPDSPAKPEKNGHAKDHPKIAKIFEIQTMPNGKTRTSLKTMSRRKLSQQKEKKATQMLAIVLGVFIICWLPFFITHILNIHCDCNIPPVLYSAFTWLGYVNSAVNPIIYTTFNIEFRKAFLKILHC

Row | Compound | inhibition at 0.1 µM [1] | inhibition at 1 µM [1] | inhibition at 1 µM [2] | inhibition at 0.1 µM [3] | inhibition at 1 µM [3] | inhibition at 1 µM [4] | inhibition at 1 µM ([5]; compound at 1 μM) | Inhibition of ligand binding, Dopamine D2L [2] | Inhibition of ligand binding, Adrenergic α1D ([4]; 1 µM) | Inhibition of ligand binding, Serotonin 5-HT7 (percent inhibition of specific binding) ([5]; compound at 1 μM, 1 µM) | Inhibition of ligand binding, Serotonin 5-HT7 (percent inhibition of specific binding) ([5]; compound at 0.1 μM, 0.1 µM) | inhibition at 0.1 µM ([5]; compound at 0.1 μM)
1 | Cc1ccc(C(O)Cn2c3c(c4cc(C)ccc42)CN(C)CC3)cc1 (racemic) [Compound 43, racemic-2-(1,2,3,4-tetrahydro-2,8-dimethylpyrido[4,3-b]indol-5-yl)-1-p-tolylethanol] | 81% | 96% | 65% | 62% | 95% | 87% | 98% | – | – | – | – | –
2 | CC(=Cn1c2c(c3cc(Cl)ccc31)CN(C)CC2)c1ccc(Cl)cc1Cl (stereo in doubt) [Compound 111, (Z)-8-chloro-5-(2-(2,4-dichlorophenyl)prop-1-enyl)-2,3,4,5-tetrahydro-2-methyl-1H-pyrido[4,3-b]indole] | 95% | 100% | – | 71% | 94% | – | – | 27% and 29% | 47% | 102% | – | –
3 | CN1CCc2c(c3cc(Cl)ccc3n2CC(C)(O)c2ccc(F)cc2)C1 (stereo not shown) [Compound 45, 1-(8-chloro-1,2,3,4-tetrahydro-2-methylpyrido[4,3-b]indol-5-yl)-2-(4-fluorophenyl)propan-2-ol] | 88% | 95% | 34% | 48% | 94% | 61% | 92% | – | – | – | – | –
4 | CCC(O)(Cn1c2c(c3cc(Cl)ccc31)CN(C)CC2)c1ccc(F)cc1 (stereo not shown) [Compound 78, 1-(8-chloro-1,2,3,4-tetrahydro-2-methylpyrido[4,3-b]indol-5-yl)-2-(4-fluorophenyl)butan-2-ol] | 69% | 103% | 27% | 78% | 101% | 49% | 97% | 33% | – | – | – | –
5 | CN1CCc2c(c3cc(Cl)ccc3n2CC(O)(c2ccc(F)cc2)C2CC2)C1 (stereo not shown) [Compound 82, 2-(8-chloro-1,2,3,4-tetrahydro-2-methylpyrido[4,3-b]indol-5-yl)-1-cyclopropyl-1-(4-fluorophenyl)ethanol] | 94% | 105% | 39% | 90% | 103% | 62% | 93% | 45% | – | – | 95% | 86%
6 | C/C(=C\n1c2c(c3cc(Cl)ccc31)CN(C)CC2)c1ccc(F)cc1 [Compound 83, (E)-8-chloro-5-(2-(4-fluorophenyl)prop-1-enyl)-2,3,4,5-tetrahydro-2-methyl-1H-pyrido[4,3-b]indole] | 100% | 98% | 98% | 96% | 102% | 96% | 93% | – | – | – | 96% | 82%
7 | C/C(=C\n1c2c(c3cc(C)ccc31)CN(C)CC2)c1ccc(F)cc1 [Compound 87, (E)-5-(2-(4-fluorophenyl)prop-1-enyl)-2,3,4,5-tetrahydro-2,8-dimethyl-1H-pyrido[4,3-b]indole] | 101% | 100% | 97% | 97% | 101% | 99% | 100% | – | – | – | – | –
8 | C/C(=C\n1c2c(c3cc(Cl)ccc31)CN(C)CC2)c1ccncc1 [Compound 90, (E)-8-chloro-2,3,4,5-tetrahydro-2-methyl-5-(2-(pyridin-4-yl)prop-1-enyl)-1H-pyrido[4,3-b]indole] | 85% | 97% | 93% | 102% | 103% | 93% | – | 98% | – | – | – | 82%
9 | C/C(=C\n1c2c(c3cc(Cl)ccc31)CN(C)CC2)c1ccc(Cl)cc1 [Compound 100, (E)-8-chloro-5-(2-(4-chlorophenyl)prop-1-enyl)-2,3,4,5-tetrahydro-2-methyl-1H-pyrido[4,3-b]indole] | 104% | 97% | 67% | 62% | 95% | 87% | 99% | 68% | – | – | – | –
10 | CN1CCc2c(c3cc(Cl)ccc3n2/C=C(/c2ccc(F)cc2)C2CC2)C1 [Compound 110, (E)-8-chloro-5-(2-cyclopropyl-2-(4-fluorophenyl)vinyl)-2,3,4,5-tetrahydro-2-methyl-1H-pyrido[4,3-b]indole] | 99% | 101% | 96% | 102% | 104% | 86% | 92% | 98% | – | – | – | –
11 | C=C(Cn1c2c(c3cc(Cl)ccc31)CN(C)CC2)c1ccc(F)cc1 [Compound 128, 8-chloro-5-(2-(4-fluorophenyl)allyl)-2,3,4,5-tetrahydro-2-methyl-1H-pyrido[4,3-b]indole] | – | 100% | 97% | 94% | 101% | 91% | 98% | – | – | – | – | –
12 | C=C(Cn1c2c(c3cc(C)ccc31)CN(C)CC2)c1ccc(F)cc1 [Compound 132, 5-(2-(4-fluorophenyl)allyl)-2,3,4,5-tetrahydro-2,8-dimethyl-1H-pyrido[4,3-b]indole] | – | 96% | 91% | – | 100% | 93% | 103% | – | – | – | – | –
13 | Cc1ccc2c(c1)c1c(n2CC(O)(c2ccc(F)cc2)C2CCCCC2)CCN(C)C1 (stereo not shown) [Compound 171, 1-cyclohexyl-2-(2,8-dimethyl-3,4-dihydro-1H-pyrido[4,3-b]indol-5(2H)-yl)-1-(4-fluorophenyl)ethanol] | 51% | 98% | 12% | 35% | 93% | 49% | 42% | – | – | – | – | –
